Two compounds from ChEMBL document CHEMBL1157330, “Diplobifuranylones A and B, 5'-monosubstituted tetrahydro-2H-bifuranyl-5-ones produced by Diplodia corticola, a fungus pathogen of cork oak” (J Nat Prod, 2006) can be followed below.

The test system of this data set is Solanum lycopersicum. Kind of data set: Phytotoxicity against Lycopersicon esculentum L. var. Marmande at 0.05 to 0.1 mg/mL by tomato cutting assay. Particulars: in vivo. It counts as organism-based.

For the compound `C[C@H](O)[C@@H]1C=CC(C2CCC(=O)O2)O1` (some centres not stated) [DIPLOBIFURANYLONE A], the Activity entry is recorded as “Non-toxic”. For `C[C@H](O)[C@H]1C=CC(C2CCC(=O)O2)O1` (some centres not stated) [DIPLOBIFURANYLONE B], the Activity result is “Non-toxic”.
